# Results as given in PubChem BioAssay (NCI).
#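 Five compound concentrations were applied to cells in 96-well plates for 48 hours; endpoints were derived by simple linear interpolation of the resulting dose-response curve. TGI: total growth inhibition.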
# Key:
# Assay in all cases: NCI tumour cell line growth inhibition, 48 h
# [1] = tested on: EKVX NSCLC
# [2] = tested on: HOP-62 NSCLC
# [3] = tested on: SN12C renal
# [4] = tested on: UACC-62 melanoma
# [5] = tested on: UO-31 renal
# [6] = tested on: COLO 205 colon
# [7] = tested on: NCI-H226 lung
# [8] = tested on: TK-10 renal
# [9] = tested on: CAKI-1 renal
# [10] = tested on: K-562 leukemia
# [11] = tested on: MCF7 breast
# [12] = tested on: T-47D breast
# [13] = tested on: RXF 393 renal
# [14] = tested on: MDA-MB-231 breast
# [15] = tested on: HL-60(TB) leukemia
# [16] = tested on: OVCAR-4 ovarian
# [17] = tested on: OVCAR-8 ovarian
# [18] = tested on: SF-268 CNS
# [19] = tested on: ACHN renal
# [20] = tested on: NCI/ADR-RES ovarian
# [21] = tested on: DU-145 prostate
# [22] = tested on: HS 578T breast
# [23] = tested on: SK-MEL-5 melanoma
# [24] = tested on: A549 NSCLC
# [25] = tested on: HCT-15 colon
# [26] = tested on: UACC-257 melanoma
# [27] = tested on: SK-MEL-28 melanoma
# [28] = tested on: SF-295 CNS
# [29] = tested on: SF-539 CNS
# [30] = tested on: A498 renal
# [31] = tested on: NCI-H460 lung
# [32] = tested on: MALME-3M melanoma
# [33] = tested on: HT29 colon
# [34] = tested on: 786-0 renal
# [35] = tested on: SK-MEL-2 melanoma
# [36] = tested on: KM12 colon
# [37] = tested on: RPMI-8226 leukemia
# [38] = tested on: SNB-19 CNS
# [39] = tested on: IGROV1 ovarian
# [40] = tested on: MOLT-4 leukemia
# [41] = tested on: NCI-H522 lung
# [42] = tested on: SW-620 colon
# [43] = tested on: NCI-H23 lung
# [44] = tested on: PC-3 prostate
# [45] = tested on: HCT-116 colon
# [46] = tested on: OVCAR-3 ovarian
# [47] = tested on: BT-549 breast
# [48] = tested on: SK-OV-3 ovarian
# [49] = tested on: SNB-75 CNS
# [50] = tested on: HOP-92 NSCLC
# [51] = tested on: MDA-MB-435
# [52] = tested on: OVCAR-5 ovarian
# [53] = tested on: M14 melanoma
# [54] = tested on: SR leukemia
# [55] = tested on: U251 CNS
structure (smiles),measurement,setting,value
O=C(COc1ccc(Cl)c(Cl)c1)Nc1ccc[n+](Cc2ccc(S(=O)(=O)F)c(Cl)c2)c1,TGI,[1],> 100 µM
same,TGI,[2],> 100 µM
same,TGI,[3],> 100 µM
same,TGI,[4],> 100 µM
same,TGI,[5],> 100 µM
same,TGI,[6],> 100 µM
same,TGI,[7],> 100 µM
same,TGI,[8],> 100 µM
same,TGI,[9],> 100 µM
same,TGI,[10],> 100 µM
same,TGI,[11],> 100 µM
same,TGI,[12],> 100 µM
same,TGI,[13],> 100 µM
same,TGI,[14],> 100 µM
same,TGI,[15],> 100 µM
same,TGI,[16],> 100 µM
same,TGI,[17],> 100 µM
same,TGI,[18],> 100 µM
same,TGI,[19],> 100 µM
same,TGI,[20],> 100 µM
same,TGI,[21],> 100 µM
same,TGI,[22],> 100 µM
same,TGI,[23],> 100 µM
same,TGI,[24],> 100 µM
same,TGI,[25],> 100 µM
same,TGI,[26],> 100 µM
same,TGI,[27],> 100 µM
same,TGI,[28],> 100 µM
same,TGI,[29],> 100 µM
same,TGI,[30],> 100 µM
same,TGI,[31],> 100 µM
same,TGI,[32],> 100 µM
same,TGI,[33],> 100 µM
same,TGI,[34],> 100 µM
same,TGI,[35],> 100 µM
same,TGI,[36],> 100 µM
same,TGI,[37],65.4 µM
same,TGI,[38],> 100 µM
same,TGI,[39],> 100 µM
same,TGI,[40],> 100 µM
same,TGI,[41],> 100 µM
same,TGI,[42],> 100 µM
same,TGI,[43],> 100 µM
same,TGI,[44],> 100 µM
same,TGI,[45],> 100 µM
same,TGI,[46],> 100 µM
same,TGI,[47],> 100 µM
same,TGI,[48],> 100 µM
same,TGI,[49],> 100 µM
same,TGI,[50],> 100 µM
same,TGI,[51],> 100 µM
same,TGI,[52],> 100 µM
same,TGI,[53],> 100 µM
same,TGI,[54],> 100 µM
same,TGI,[55],> 100 µM
